# From patent US20210094973A1, “HETEROCYCLIC COMPOUNDS” (Hoffmann-La Roche Inc., priority 2019, published 2021)
# Target: T1, MAGL (Homo sapiens, UniProt Q99685)
# T1 sequence (Q99685 1-303): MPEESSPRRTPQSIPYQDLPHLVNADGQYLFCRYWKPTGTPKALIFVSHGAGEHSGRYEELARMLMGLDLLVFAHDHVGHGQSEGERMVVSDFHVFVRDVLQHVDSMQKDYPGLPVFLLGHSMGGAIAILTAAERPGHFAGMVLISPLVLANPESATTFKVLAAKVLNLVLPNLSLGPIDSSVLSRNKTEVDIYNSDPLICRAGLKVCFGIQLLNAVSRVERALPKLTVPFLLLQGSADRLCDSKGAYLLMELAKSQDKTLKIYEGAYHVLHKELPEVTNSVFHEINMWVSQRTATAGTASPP
# Test: 2-AG assay (MAGL inhibitory activity, hydrolysis of 2-arachidonoylglycerol followed by mass spectrometry)
# Assay type: biochemical
# Conditions: 15 min preincubation at RT, 8 μM 2-arachidonoylglycerol, 30 min at RT, arachidonic acid by MS
# Procedure: Compounds were profiled for MAGL inhibitory activity by determining the enzymatic activity by following the hydrolysis of the natural substrate 2-arachidonoylglycerol (2-AG) resulting in arachidonic acid, which can be followed by mass spectrometry. This assay is hereinafter abbreviated “2-AG assay”.
# The 2-AG assay was carried out in 384 well assay plates (PP, Greiner Cat #784201) in a total volume of 20 μL. Compound dilutions were made in 100% DMSO (VWR Chemicals 23500.297) in a polypropylene plate in 3-fold dilution steps to give a final concentration range in the assay from 12.5 μM to […]. 0.25 μL compound dilutions (100% DMSO) were added to 9 μL MAGL in assay buffer (50 mM TRIS (GIBCO, 15567-027), 1 mM EDTA (Fluka, 03690-100 mL), 0.01% (v/v) Tween. After shaking, the plate was incubated for 15 min at RT. To start the reaction, 10 μL 2-arachidonoylglycerol in assay buffer was added. The final concentrations in the assay was […] and 8 μM 2-arachidonoylglyerol. After shaking and 30 min incubation at RT, the reaction was quenched by the addition of 40 μL of ACN containing 4 μM of d8-arachidonic acid. The amount of arachidonic acid was traced by an online SPE system (Agilent Rapidfire) coupled to a triple quadrupole mass spectrometer (Agilent 6460). A C18 SPE cartridge (G9205A) was used in an ACN/water liquid setup. The mass spectrometer was operated in negative electrospray mode following the mass transitions 303.1→259.1 for arachidonic acid and 311.1→267.0 for d8-arachidonic acid. The activity of the compounds was calculated based on the ratio of intensities [arachidonic acid/d8-arachidonic acid].
row,Molecule,IC50 [nM]
1,"O=C1CO[C@H]2CCN(C(=O)N3CC(c4ccc(C5CCOCC5)cc4)C3)C[C@H]2N1 [Example 5, (4aR,8aS)-6-[3-(4-Tetrahydropyran-4-ylphenyl)azetidine-1-carbonyl]-4,4a,5,7,8,8a-hexahydropyrido[4,3-b][1,4]oxazin-3-one]",6
2,"O=C1CO[C@H]2CCN(C(=O)N3CC(c4ccc(OC5CCCC5)cc4)C3)C[C@H]2N1 [Example 13, (4aR,8aS)-6-(3-(4-(Cyclopentyloxy)phenyl)azetidine-1-carbonyl)hexahydro-2H-pyrido[4,3-b][1,4]oxazin-3(4H)-one]",0.6
3,"Cc1c(CC2CCN(C(=O)N3CC[C@@H]4OCC(=O)N[C@@H]4C3)CC2)cncc1C1CC1 [Example 23, (4aR,8aS)-6-(4-((5-Cyclopropyl-4-methylpyridin-3-yl)methyl)piperidine-1-carbonyl)hexahydro-2H-pyrido[4,3-b][1,4]oxazin-3(4H)-one]",119
4,"O=C1CO[C@H]2CCN(C(=O)N3CC(OCc4ccc(Cl)cc4OC(F)(F)F)C3)C[C@H]2N1 [Example 33, (4aR,8aS)-6-(3-((4-Chloro-2-(trifluoromethoxy)benzyl)oxy)azetidine-1-carbonyl)hexahydro-2H-pyrido[4,3-b][1,4]oxazin-3(4H)-one]",5.9
5,"O=C1CO[C@H]2CCN(C(=O)N3CC(c4ccc(C5CCOC5)cc4)C3)C[C@H]2N1 (single isomer, unassigned) [Example 2, (4aR,8aS)-6-[3-[4-[(3S or R)-Tetrahydrofuran-3-yl]phenyl]azetidine-1-carbonyl]-4,4a,5,7,8,8a-hexahydropyrido[4,3-b][1,4]oxazin-3-one]",42
6,"O=C1CO[C@H]2CCN(C(=O)N3CC(c4nc(-c5ccc(Cl)cc5Cl)no4)C3)C[C@H]2N1 [Example 16, (4aR,8aS)-6-[3-[3-(2,4-Dichlorophenyl)-1,2,4-oxadiazol-5-yl]azetidine-1-carbonyl]-4,4a,5,7,8,8a-hexahydropyrido[4,3-b][1,4]oxazin-3-one]",24.5
7,"O=C1CO[C@H]2CCN(C(=O)N3CC(c4ccc(C5CC(F)(F)C5)cc4)C3)C[C@H]2N1 [Example 6, (4aR,8aS)-6-[3-[4-(3,3-Difluorocyclobutyl)phenyl]azetidine-1-carbonyl]-4,4a,5,7,8,8a-hexahydropyrido[4,3-b][1,4]oxazin-3-one]",2.9
8,"CC1(C)CCOc2ccc(C3CN(C(=O)N4CC[C@@H]5OCC(=O)N[C@@H]5C4)C3)cc21 [Example 14, (4aR,8aS)-6-(3-(4,4-Dimethylchroman-6-yl)azetidine-1-carbonyl)hexahydro-2H-pyrido[4,3-b][1,4]oxazin-3(4H)-one]",26.4
9,"(4aR,8aS)-6-[rel-(3R,4R)-4-[(2-chloro-4-fluoro-phenoxy)methyl]-3-methyl-piperidine-1-carbonyl]-4,4a,5,7,8,8a-hexahydropyrido[4,3-b][1,4]oxazin-3-one [Example 38]",6.4
10,"O=C1CO[C@H]2CCN(C(=O)N3CC(OCc4ccccc4OC(F)(F)F)C3)C[C@H]2N1 [Example 32, (4aR,8aS)-6-(3-((2-(Trifluoromethoxy)benzyl)oxy)azetidine-1-carbonyl)hexahydro-2H-pyrido[4,3-b][1,4]oxazin-3(4H)-one]",22.5
11,"O=C1CO[C@H]2CCN(C(=O)N3CC(OCc4c(Cl)cccc4Cl)C3)C[C@H]2N1 [Example 21, (4aR,8aS)-6-(3-((2,6-Dichlorobenzyl)oxy)azetidine-1-carbonyl)hexahydro-2H-pyrido[4,3-b][1,4]oxazin-3(4H)-one]",27.8
12,"O=C1CO[C@H]2CCN(C(=O)N3CC(c4ccc(OCC5CC5)cc4)C3)C[C@H]2N1 [Example 15, (4aR,8aS)-6-(3-(4-(Cyclopropylmethoxy)phenyl)azetidine-1-carbonyl)hexahydro-2H-pyrido[4,3-b][1,4]oxazin-3(4H)-one]",8.7
13,"CC1C(OCc2c(F)cccc2C(F)(F)F)CN1C(=O)N1CC[C@@H]2OCC(=O)N[C@@H]2C1 (single isomer, unassigned) [Example 29]",406
14,"O=C1CO[C@H]2CCN(C(=O)N3CC(c4nc(-c5ccc(Cl)cc5C(F)(F)F)no4)C3)C[C@H]2N1 [Example 9, (4aR,8aS)-6-[3-[3-[4-Chloro-2-(trifluoromethyl)phenyl]-1,2,4-oxadiazol-5-yl]azetidine-1-carbonyl]-4,4a,5,7,8,8a-hexahydropyrido[4,3-b][1,4]oxazin-3-one]",23.5
15,"Cn1ncc2cc(C3CN(C(=O)N4CC[C@@H]5OCC(=O)N[C@@H]5C4)C3)ccc21 [Example 17, (4aR,8aS)-6-(3-(1-Methyl-1H-indazol-5-yl)azetidine-1-carbonyl)hexahydro-2H-pyrido[4,3-b][1,4]oxazin-3(4H)-one]",168
16,"O=C1CO[C@H]2CCN(C(=O)N3CC(OCc4ccc(S(F)(F)(F)(F)F)cc4)C3)C[C@H]2N1 [Example 31, (4aR,8aS)-6-(3-((4-(Pentafluoro-16-sulfanyl)benzyl)oxy)azetidine-1-carbonyl)hexahydro-2H-pyrido[4,3-b][1,4]oxazin-3(4H)-one]",5.8
17,"O=C1CO[C@H]2CCN(C(=O)N3CC(c4cn(-c5ccc(Cl)cc5Cl)cn4)C3)C[C@H]2N1 [Example 8, (4aR,8aS)-6-[3-[1-(2,4-Dichlorophenyl)imidazol-4-yl]azetidine-1-carbonyl]-4,4a,5,7,8,8a-hexahydropyrido[4,3-b][1,4]oxazin-3-one]",38.8
18,"CC(C)Oc1ccc(C2CN(C(=O)N3CC[C@@H]4OCC(=O)N[C@@H]4C3)C2)cc1 [Example 4, (4aR,8aS)-6-[3-(4-Isopropoxyphenyl)azetidine-1-carbonyl]-4,4a,5,7,8,8a-hexahydropyrido[4,3-b][1,4]oxazin-3-one]",7.1
19,"O=C1CO[C@H]2CCN(C(=O)N3CCC(OCc4ccc(C(F)(F)F)cc4Cl)CC3)C[C@H]2N1 [Example 26, (4aR,8aS)-6-(4-((2-chloro-4-(trifluoromethyl)benzyl)oxy)piperidine-1-carbonyl)hexahydro-2H-pyrido[4,3-b][1,4]oxazin-3(4H)-one]",5.2
20,"Cc1cc(CC2CCN(C(=O)N3CC[C@@H]4OCC(=O)N[C@@H]4C3)CC2)cnc1C(F)(F)F [Example 37, (4aR,8aS)-6-(4-((5-Methyl-6-(trifluoromethyl)pyridin-3-yl)methyl)piperidine-1-carbonyl)hexahydro-2H-pyrido[4,3-b][1,4]oxazin-3(4H)-one]",31.7
21,"CC(C)(Oc1ccc(C2CN(C(=O)N3CC[C@@H]4OCC(=O)N[C@@H]4C3)C2)cc1)C(F)(F)F [Example 12, (4aR,8aS)-6-[3-[4-(2,2,2-Trifluoro-1,1-dimethyl-ethoxy)phenyl]azetidine-1-carbonyl]-4,4a,5,7,8,8a-hexahydropyrido[4,3-b][1,4]oxazin-3-one]",0.3
22,"O=C1CO[C@H]2CCN(C(=O)N3CC(c4nnc(-c5ccc(F)cc5F)[nH]4)C3)C[C@H]2N1 [Example 48, (4aR,8aS)-6-[3-[5-(2,4-Difluorophenyl)-4H-1,2,4-triazol-3-yl]azetidine-1-carbonyl]-4,4a,5,7,8,8a-hexahydropyrido[4,3-b][1,4]oxazin-3-one]",333
23,"O=C1CO[C@H]2CCN(C(=O)N3CCC(Cc4ccc(C(F)(F)F)cc4C(F)(F)F)CC3)C[C@H]2N1 [Example 36, (4aR,8aS)-6-[4-[[2,4-bis(Trifluoromethyl)phenyl]methyl]piperidine-1-carbonyl]-4,4a,5,7,8,8a-hexahydropyrido[4,3-b][1,4]oxazin-3-one]",9.4
24,"O=C1CO[C@H]2CCN(C(=O)N3CCC(Cc4ccc(C(F)(F)F)c(-c5ccccc5)c4)CC3)C[C@H]2N1 [Example 35, (4aR,8aS)-6-[4-[[3-Phenyl-4-(trifluoromethyl)phenyl]methyl]piperidine-1-carbonyl]-4,4a,5,7,8,8a-hexahydropyrido[4,3-b][1,4]oxazin-3-one]",4.6
25,"O=C1CO[C@H]2CCN(C(=O)N3CC(C(=O)Nc4ccc(F)cc4Cl)C3)C[C@H]2N1 [Example 45, N-(2-chloro-4-fluorophenyl)-1-((4aR,8aS)-3-oxooctahydro-2H-pyrido[4,3-b][1,4]oxazine-6-carbonyl)azetidine-3-carboxamide]",1250
26,"(4aR,8aS)-6-[rel-(3R,4R)-4-[(2-chloro-4-fluoro-phenoxy)methyl]-3-methyl-piperidine-1-carbonyl]-4,4a,5,7,8,8a-hexahydropyrido[4,3-b][1,4]oxazin-3-one [Example 39]",1.9
